Test results taken from paper PMC12027443, “Surface Plasmon Resonance (SPR) for the Binding Kinetics Analysis of Synthetic Cannabinoids: Advancing CB1 Receptor Interaction Studies” (International Journal of Molecular Sciences, 2025).
Read-outs that look alike come from different tables or passages of the source.

How the values were obtained:
[1] = target: T1, CB1 receptor (Homo sapiens, UniProt P21554); design: method as in PMID 40180269; conditions: SPR affinity assessment, earlier study, cited from earlier work
T1 sequence (P21554 whole entry): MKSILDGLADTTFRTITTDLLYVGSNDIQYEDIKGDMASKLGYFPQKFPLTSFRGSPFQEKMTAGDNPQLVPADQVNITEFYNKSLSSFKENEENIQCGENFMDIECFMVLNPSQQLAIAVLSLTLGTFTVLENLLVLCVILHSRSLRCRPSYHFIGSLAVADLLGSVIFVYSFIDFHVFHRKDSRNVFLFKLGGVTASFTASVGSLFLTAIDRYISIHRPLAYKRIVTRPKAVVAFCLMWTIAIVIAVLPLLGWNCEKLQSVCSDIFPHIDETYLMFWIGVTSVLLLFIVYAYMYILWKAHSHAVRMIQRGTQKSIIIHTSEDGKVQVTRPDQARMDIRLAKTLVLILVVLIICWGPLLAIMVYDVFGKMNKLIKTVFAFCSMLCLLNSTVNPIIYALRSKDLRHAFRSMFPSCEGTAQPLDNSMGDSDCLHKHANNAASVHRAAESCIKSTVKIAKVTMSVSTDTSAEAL

[2] = test system: mice; design: method as in PMID 40180269; conditions: hypothermia, motor suppression, catalepsy; ranking among 4F-ABUTINACA, JWH-018, SDB-005; cited from earlier work
[3] = test system: mice; design: method as in PMID 40180269; conditions: ranking among 4F-ABUTINACA, JWH-018, SDB-005; cited from earlier work
[4] = test system: mice; design: method as in PMID 40180269; conditions: cited from earlier work
[5] = target: T1, CB1 receptor; design: method as in PMID 31021521; conditions: read-out: βarr2 Recruitment Assay EC50 Values; HEK293T cell lines; Table 3; cited from earlier work
[6] = target: T1, CB1 receptor; design: method as in PMID 26686391; conditions: read-out: GTPγS Binding Assay Ki Value; Table 2; cited from earlier work
[7] = target: T1, CB1 receptor; assay: Surface Plasmon Resonance (SPR) affinity assay, CB1 protein immobilized on CM5 chip (Biacore T200); type: binding
Method: The ligand immobilization was conducted in four steps: ligand pre-enrichment, activation, coupling, and blocking. To prepare the 1.05× PBS-P buffer, it was diluted from the 10× PBS-P buffer. For ligand pre-enrichment, the Biacore T200 (cytiva, Marlborough, MA, USA; manufactured in Sweden) pre-enrichment program was employed. The 300 μg/mL protein stock solution was diluted to a final concentration of 15 μg/mL using 10 mM sodium acetate solutions at pH 4.0, 4.5, 5.0, and 5.5, respectively. The ligand was flowed over the surface of a blank chip at a flow rate of 30 μL/min to assess the effect of electrostatic adsorption. Based on the response difference and slope, the optimal coupling pH of 4.0 was selected. For activation, the Biacore T200 manual coupling program was used. The carboxylic acid groups on the chip surface were activated by injecting a 1:1 mixture of EDC and NHS from the amino-coupling kit at a flow rate of 10 μL/min for 900 s. During the coupling step, the 300 μg/mL protein stock solution was diluted 10-fold to 30 μg/mL using sodium acetate at pH 4.0. […]
For solvent correction, eight solvent correction points were established, with correction cycles performed at the beginning, end, and every 30 samples during the experiment. […] The system continuously monitored and recorded the sensorgram of the interaction between the sample and the CB1 protein in real time. […]

SMILES | effects in the tetrad test [2] | reward potential in the CPP test [3] | Ki [6] [nM] | further results
CCCCCn1nc(C(=O)Oc2cccc3ccccc23)c2ccccc21 [SDB-005] | weaker | weaker | – | Kd ([1]; read-out: KD): 53000 nM
O=C(NC12CC3CC(CC(C3)C1)C2)c1nn(CCCCF)c2ccccc12 [4F-ABUTINACA] | most pronounced effects | strongest reward potential | – | LD50 (acute toxicity) [4]: 11.62 mg/kg; Kd ([1]; read-out: KD): 20100 nM
CC(C)C(NC(=O)c1nn(CC2CCCCC2)c2ccccc12)C(N)=O (centres unmarked) [AB-CHMINACA] | – | – | – | EC50 [5]: 0.34 nM
CCCCCn1cc(C(=O)c2cccc3ccccc23)c2ccccc21 [JWH-018] | intermediate | intermediate | 3.38 | EC50 [5]: 36.8 nM; Kd [1]: 39300 nM
C=CCCCn1nc(C(=O)NC(C(=O)OC)C(C)(C)C)c2ccccc21 (centres unmarked) [MDMB-4en-PINACA] | – | – | – | affinity relative to AMB-4en-PICA ([7]; ratio of KD values, MDMB-4en-PINACA versus AMB-4en-PICA): six-fold higher affinity
O=C(NC12CC3CC(CC(C3)C1)C2)c1nn(CCCCCF)c2ccccc12 [5F-AKB-48] | – | – | 0.87 | reduction in the KD value on substitution of parent core from indole to indazole ([7]; 5F-AKB-48 versus STS-135): 50%
O=C(NC12CC3CC(CC(C3)C1)C2)c1cn(CCCCCF)c2ccccc12 [STS-135] | – | – | 1.93 | –
